The values that follow come from patent publication US20250025443A1, “COMPOUNDS AND METHODS FOR TREATING CORONA VIRUSES” (CLEAR CREEK BIO, INC., priority 2021, published 2025).

For this experiment, the target named is SARS-CoV-2 Papain-Like Protease (PLpro) (Severe acute respiratory syndrome coronavirus 2 (2019-nCoV) (SARS-CoV-2), UniProt P0DTD1). The experiment in a line: biochemical. As to conditions: SARS-CoV-2 PLpro enzymatic fluorescence assay; read-out: PLpro IC50.
A word on the IC50: it is the concentration that gives 50% inhibition. Take `Cc1ccc(OCCN(C)C)cc1C(=O)NC1(c2cccc(C3=CCCCC3)c2)CC1` [Compound 338, 5-(2-(Dimethylamino)ethoxy)-2-methyl-N-(1-(2′,3′,4′,5′-tetrahydro-[1,1′-biphenyl]-3-yl)cyclopropyl)benzamide]: the IC50 lay in the range of 1000 to 5000 nM.

Take `Cc1ccc(OCCN(C)C)cc1C(=O)NC1(c2cccc(-c3ccccc3)c2C)CC1` [Compound 340, 5-(2-(Dimethylamino)ethoxy)-2-methyl-N-(1-(2-methyl-[1,1′-biphenyl]-3-yl)cyclopropyl)benzamide]: the half-inhibitory concentration (IC50) lay in the range of 100 to 1000 nM.

`Cc1ccc(OCC(N)C(C)(C)C)cc1C(=O)NC1(c2cccc3ccccc23)CC1` (centres unmarked) [Compound 343, 5-(2-Amino-3,3-dimethylbutoxy)-2-methyl-N-(1-(naphthalen-1-yl)cyclopropyl)benzamide]: the IC50 is less than 100 nM.

On to `Cc1ccc(OCCN(C)C)cc1C(=O)NC1(c2ccccc2C(C)C)CC1` [Compound 344, 5-(2-(Dimethylamino)ethoxy)-N-(1-(2-isopropylphenyl)cyclopropyl)-2-methylbenzamide], for which the IC50 fell in the range of 100 to 1000 nM.

With `Cc1ccc(OCCN(C)C)cc1C(=O)NC1(c2cc(O)cc3ccccc23)CC1` [Compound 345, 5-(2-(Dimethylamino)ethoxy)-N-(1-(3-hydroxynaphthalen-1-yl)cyclopropyl)-2-methylbenzamide], the IC50 was less than 100 nM.

Turning to `Cc1ccc(OCCN(C)C)cc1C(=O)NC1(c2csc3ccccc23)CC1` [Compound 346, N-(1-(Benzo[b]thiophen-3-yl)cyclopropyl)-5-(2-(dimethylamino)ethoxy)-2-methylbenzamide], the IC50 was 100 to 1000 nM.

`CNCCOc1ccc(C)c(C(=O)NC2(c3cc(OC)cc4ccccc34)CC2)c1` [Compound 347, N-(1-(3-Methoxynaphthalen-1-yl)cyclopropyl)-2-methyl-5-(2-(methylamino)ethoxy)benzamide]: the IC50 was less than 100 nM.

Turning to `COCCN1CCC1COc1ccc(C)c(C(=O)NC2(c3cccc4ccccc34)CC2)c1` (centres unmarked) [Compound 348, 5-((1-(2-Methoxyethyl)azetidin-2-yl)methoxy)-2-methyl-N-(1-(naphthalen-1-yl)cyclopropyl)benzamide], the IC50 was less than 100 nM.

As to `CNCCOc1ccc(C)c(C(=O)N[C@@H](c2cccc3ccccc23)C(F)(F)F)c1` [Compound 349, (S)-2-Methyl-5-(2-(methylamino)ethoxy)-N-(2,2,2-trifluoro-1-(naphthalen-1-yl)ethyl)benzamide], the IC50 was 100 to 1000 nM.

Consider `Cc1cnc(OCCN(C)C)nc1C(=O)NC1(c2cccc3ccccc23)CC1` [Compound 350, 2-(2-(Dimethylamino)ethoxy)-5-methyl-N-(1-(naphthalen-1-yl)cyclopropyl)pyrimidine-4-carboxamide], for which the IC50 lay in the range of 1000 to 5000 nM.

Regarding `CCNCCOc1ccc(C)c(C(=O)NC2(c3cccc4ccccc34)CC2)c1` [Compound 351, 5-(2-(Ethylamino)ethoxy)-2-methyl-N-(1-(naphthalen-1-yl)cyclopropyl)benzamide], the IC50 is less than 100 nM.

Consider `Cc1ccc(OCC(C)(C)N)cc1C(=O)NC1(c2cccc3ccccc23)CC1` [Compound 352, 5-(2-Amino-2-methylpropoxy)-2-methyl-N-(1-(naphthalen-1-yl)cyclopropyl)benzamide], for which the IC50 is less than 100 nM.

Turning to `CN(C)CCOc1ccc(C2CC2)c(C(=O)NC2(c3cccc4ccccc34)CC2)c1` [Compound 353, 2-Cyclopropyl-5-(2-(dimethylamino)ethoxy)-N-(1-(naphthalen-1-yl)cyclopropyl)benzamide], the IC50 was more than 5000 nM.

Take `Cc1ccc(OCCN(C)C)cc1C(=O)NC1(c2cn(C)c3ccccc23)CC1` [Compound 354, 5-(2-(Dimethylamino)ethoxy)-2-methyl-N-(1-(1-methyl-1H-indol-3-yl)cyclopropyl)benzamide]: the half-maximal inhibitory concentration (IC50) was in the range of 100 to 1000 nM.

Regarding `Cc1ccc(OCCN(C)C)cc1C(=O)NC1(c2cccc(-c3cccs3)c2)CC1` [Compound 355, 5-(2-(Dimethylamino)ethoxy)-2-methyl-N-(1-(3-(thiophen-2-yl)phenyl)cyclopropyl)benzamide], the IC50 was in the range of 100 to 1000 nM.

With `Cc1ccc(OCCN(C)C)cc1C(=O)NC1(c2cccc3sccc23)CC1` [Compound 356, N-(1-(Benzo[b]thiophen-4-yl)cyclopropyl)-5-(2-(dimethylamino)ethoxy)-2-methylbenzamide], the IC50 was less than 100 nM.

As for `Cc1ccc(OCCN(C)C)cc1C(=O)NC1(c2cccc3occc23)CC1` [Compound 357, N-(1-(Benzofuran-4-yl)cyclopropyl)-5-(2-(dimethylamino)ethoxy)-2-methylbenzamide], the IC50 lay within 100 to 1000 nM.

With `COCCNCCOc1ccc(C)c(C(=O)NC2(c3cccc4ccccc34)CC2)c1` [Compound 358, 5-(2-((2-Methoxyethyl)amino)ethoxy)-2-methyl-N-(1-(naphthalen-1-yl)cyclopropyl)benzamide], the IC50 was less than 100 nM.

For the molecule `Cc1ccc(OCCNCCO)cc1C(=O)NC1(c2cccc3ccccc23)CC1` [Compound 359, 5-(2-((2-Hydroxyethyl)amino)ethoxy)-2-methyl-N-(1-(naphthalen-1-yl)cyclopropyl)benzamide], the half-maximal inhibitory concentration (IC50) is less than 100 nM.

Take `Cc1ccc(OCCNCc2ccccc2)cc1C(=O)NC1(c2cccc3ccccc23)CC1` [Compound 360, 5-(2-(Benzylamino)ethoxy)-2-methyl-N-(1-(naphthalen-1-yl)cyclopropyl)benzamide]: the IC50 is less than 100 nM.

As to `Cc1ccc(OCCNCC2CC2)cc1C(=O)NC1(c2cccc3ccccc23)CC1` [Compound 361, 5-(2-((Cyclopropylmethyl)amino)ethoxy)-2-methyl-N-(1-(naphthalen-1-yl)cyclopropyl)benzamide], the IC50 is less than 100 nM.

Take `Cc1ccc(OCCNC(C)C)cc1C(=O)NC1(c2cccc3ccccc23)CC1` [Compound 362, 5-(2-(Isopropylamino)ethoxy)-2-methyl-N-(1-(naphthalen-1-yl)cyclopropyl)benzamide]: the IC50 was less than 100 nM.

For the molecule `COc1cc(C2(NC(=O)c3cc(OCCN)ccc3C)CC2)c2ccccc2c1` [Compound 363, 5-(2-Aminoethoxy)-N-(1-(3-methoxynaphthalen-1-yl)cyclopropyl)-2-methylbenzamide], the IC50 is less than 100 nM.

With `CCc1ccccc1C1(NC(=O)c2cc(OCCN(C)C)ccc2C)CC1` [Compound 364, 5-(2-(Dimethylamino)ethoxy)-N-(1-(2-ethylphenyl)cyclopropyl)-2-methylbenzamide], the IC50 lay within 100 to 1000 nM.

`Cc1ccc(OCCN(C)C)cc1C(=O)NC1(c2cccc3ccc(F)cc23)CC1` [Compound 365, 5-(2-(Dimethylamino)ethoxy)-N-(1-(7-fluoronaphthalen-1-yl)cyclopropyl)-2-methylbenzamide]: the half-inhibitory concentration (IC50) was less than 100 nM.

As for `Cc1cnc(OCCN(C)C)cc1C(=O)NC1(c2cccc3ccccc23)CC1` [Compound 366, 2-(2-(Dimethylamino)ethoxy)-5-methyl-N-(1-(naphthalen-1-yl)cyclopropyl) isonicotinamide], the IC50 was in the range of 100 to 1000 nM.

Take `Cc1ccc(OCC(N)c2ccccc2)cc1C(=O)NC1(c2cccc3ccccc23)CC1` (centres unmarked) [Compound 367, 5-(2-Amino-2-phenylethoxy)-2-methyl-N-(1-(naphthalen-1-yl)cyclopropyl)benzamide]: the half-inhibitory concentration (IC50) is less than 100 nM.

As for `Cc1ccc(OCCN(C)C)cc1C(=O)NC1(c2cccc3ccsc23)CC1` [Compound 368, N-(1-(Benzo[b]thiophen-7-yl)cyclopropyl)-5-(2-(dimethylamino)ethoxy)-2-methylbenzamide], the IC50 fell in the range of 100 to 1000 nM.

`Cc1cc(Br)c(OCCN(C)C)cc1C(=O)NC1(c2cccc3ccccc23)CC1` [Compound 369, 4-Bromo-5-(2-(dimethylamino)ethoxy)-2-methyl-N-(1-(naphthalen-1-yl)cyclopropyl)benzamide]: the IC50 is less than 100 nM.

For `Cc1ccc(OCCN(C)C)cc1C(=O)NC1(c2cccc3ccoc23)CC1` [Compound 370, N-(1-(Benzofuran-7-yl)cyclopropyl)-5-(2-(dimethylamino)ethoxy)-2-methylbenzamide], the half-maximal inhibitory concentration (IC50) fell in the range of 100 to 1000 nM.

Take `Cc1ccc(OC[C@H]2CCCN2)cc1C(=O)NC1(c2cccc3ncccc23)CC1` [Compound 371, (R)-2-methyl-5-(pyrrolidin-2-ylmethoxy)-N-(1-(quinolin-5-yl)cyclopropyl)benzamide]: the concentration for half-maximal inhibition (IC50) was less than 100 nM.

With `COC(=O)/C=C/C(=O)NNC(=O)CCc1ccccc1C(=O)NC1(c2cccc3ccccc23)CC1` [Compound 373, (E)-Methyl 4-(2-(3-(2-((1-(naphthalen-1-yl)cyclopropyl)carbamoyl)phenyl)propanoyl) hydrazinyl)-4-oxobut-2-enoate], the IC50 was less than 100 nM.

With `Cc1ccc(OCCN)cc1C(=O)NC1(c2cccc3ncccc23)CC1` [Compound 374, 5-(2-Aminoethoxy)-2-methyl-N-(1-(quinolin-5-yl)cyclopropyl)benzamide], the IC50 was less than 100 nM.

For `CNCCOc1ccc(C)c(C(=O)NC2(c3cccc4cnccc34)CC2)c1` [Compound 375, N-(1-(Isoquinolin-5-yl)cyclopropyl)-2-methyl-5-(2-(methylamino)ethoxy)benzamide], the IC50 is less than 100 nM.

For the molecule `Cc1ccc(OCC23CCCN2CCC3)cc1C(=O)NC1(c2cccc3ccccc23)CC1` [Compound 376, 5-((Hexahydro-1H-pyrrolizin-7a-yl)methoxy)-2-methyl-N-(1-(naphthalen-1-yl)cyclopropyl)benzamide], the IC50 was less than 100 nM.

Turning to `CNCCOc1ccc(C)c(C(=O)NC2(c3cccc4cc(F)ccc34)CC2)c1` [Compound 377, N-(1-(6-Fluoronaphthalen-1-yl)cyclopropyl)-2-methyl-5-(2-(methylamino)ethoxy)benzamide], the IC50 is less than 100 nM.

Take `Cc1ccc(CCN)cc1C(=O)NC1(c2cccc3ccccc23)CC1` [Compound 378, 5-(2-Aminoethyl)-2-methyl-N-(1-(naphthalen-1-yl)cyclopropyl)benzamide]: the half-maximal inhibitory concentration (IC50) was less than 100 nM.

Turning to `Cc1ccc(OC[C@@H]2CCCN2C)cc1C(=O)NC1(c2cccc3ncccc23)CC1` [Compound 379, (S)-2-Methyl-5-((1-methylpyrrolidin-2-yl)methoxy)-N-(1-(quinolin-5-yl)cyclopropyl)benzamide], the IC50 was less than 100 nM.
